As usually defined, the TGI is the concentration giving total growth inhibition. Low readings indicate more potent growth arrest, high ones less potent growth arrest. Broadly, the GI50 is the concentration giving 50% growth inhibition.

Here are results for 20 molecules from PubChem BioAssay (NCI).

Each structure is given as a SMILES string. Values joined by “and” are separate entries in the source; they are usually repeats but may differ in a detail not shown here. Identical values can stand only once.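 The compound was tested at five concentrations on cells cultured in 96-well plates, with a 48-hour exposure period. GI50 is the concentration that inhibits growth by half. The concentration for full growth arrest is given as TGI.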 Active and inactive are the calls of the source. No stated cut-off is given here; in the data, active means GI50 below about 0.43 µM; inactive means the rest.

Some test systems named below: KM20L2 colon; SNB-78 CNS; DLD-1 colon; HOP-18 NSCLC; DMS 273 small cell lung; M19-MEL melanoma; MDA-N; XF 498 CNS.
Assay in all cases: DTP human tumour cell line panel, 48 h

As to `Cc1ccc2c(c1)C1C(CO2)C(c2ccccc2)=NN1c1ccccc1` (configuration not stated), the TGI in the test with KM20L2 colon, with SNB-78 CNS, in the test on DLD-1 colon, with HOP-18 NSCLC, in the test on DMS 273 small cell lung and with M19-MEL melanoma was above 100 µM each time.
With `CC(C)=CCC1=C(OCC(=O)O)C(=O)c2ccccc2C1=O`, the TGI with MDA-N was 34.8 µM.
Consider `COC(=O)N/N=C(\C(=O)Nc1cccc([N+](=O)[O-])c1)c1nc2ccc([N+](=O)[O-])cc2[nH]c1=O`, for which the TGI in the test on KM20L2 colon was 67.3 µM; with DLD-1 colon it was above 100 µM; in the test on HOP-18 NSCLC, above 100 µM; in the test on M19-MEL melanoma, above 100 µM; in the test with XF 498 CNS, above 100 µM.
`CC1(C)CCCC(C)(C2CCC3(C)C2C(O)CC2C4(C)CCC(O)C(C)(C)C4C(O)CC23C)O1` (configuration not stated) showed a concentration for total growth inhibition (TGI) in the test on MDA-N of 30.8 µM.
In the case of `COC(=O)NN1C(C)=C(C(=O)OC)C2(C#N)C(C(=O)OC)=C(C)N(NC(=O)OC)C12N` (configuration not stated), the TGI in the test on KM20L2 colon, in the test with SNB-78 CNS, in the test on DLD-1 colon, in the test with HOP-18 NSCLC, in the test on DMS 273 small cell lung and with M19-MEL melanoma was above 100 µM each time. The TGI with XF 498 CNS was above 100 µM.
Consider `CSc1ccc(OCC2OC2O)cc1` (configuration not stated), for which the TGI with KM20L2 colon, in the test with SNB-78 CNS, in the test on DLD-1 colon, in the test on HOP-18 NSCLC, in the test on DMS 273 small cell lung and with M19-MEL melanoma was above 100 µM in each case. The same molecule registered a TGI in the test with XF 498 CNS of 78.7 µM.
With `CSCC[C@H](NC(=O)[C@H](CC(C)C)NC(=O)[C@@H](Cc1ccccc1)NC(=O)CNC(=O)[C@@H](NC(=O)[C@H](C)NC(=O)[C@H](Cc1c[nH]c2ccccc12)NC(=O)[C@H](CCC(N)=O)NC(=O)[C@H](N)CC(N)=O)C(C)C)C(N)=O`, the total growth inhibition concentration (TGI) in the test with MDA-N is above 12.5 µM.
In the case of `CC1=NN2C(c3ccc(C)cc3)=CSC2=NC(C)(C)C1`, the TGI in the test on KM20L2 colon, in the test with SNB-78 CNS, in the test with DLD-1 colon, in the test with HOP-18 NSCLC, in the test on M19-MEL melanoma and in the test with XF 498 CNS was above 100 µM each time.
Regarding `C1COCCOCCOCCOCCOCCO1.[Cl][Sn]([Cl])([c]1ccccc1)[c]1ccccc1`, in the test on KM20L2 colon, the GI50 is 7.02 µM and the concentration for total growth inhibition (TGI) was 18.2 µM.
As for `COC(C(=O)C(O)C(C)O)C1Cc2cc3cc(OC4CC(OC5CC(O)C(O)C(C)O5)C(O)C(C)O4)c(C)c(O)c3c(O)c2C(=O)C1OC1CC(OC2CC(O)C(OC3CC(C)(O)C(O)C(C)O3)C(C)O2)C(O)C(C)O1` (configuration not stated), the result in the test with KM20L2 colon, in the test with HOP-18 NSCLC and in the test on XF 498 CNS was inactive. Further, the GI50 is 0.0424 ng/mL in the test on SNB-78 CNS; 13.9 ng/mL and 25.8 ng/mL in the test on MDA-N; 0.0828 ng/mL with DLD-1 colon; 0.0407 ng/mL in the test on DMS 273 small cell lung; 0.0253 ng/mL in the test with M19-MEL melanoma. Also, the TGI is 21.4 ng/mL with SNB-78 CNS; 128 ng/mL and 328 ng/mL with MDA-N; 150 ng/mL with DLD-1 colon; 2.4 ng/mL in the test with DMS 273 small cell lung; 0.31 ng/mL in the test on M19-MEL melanoma.
In the case of `C/C=C(/CCC1NCCC2c3ccccc3NC12)[Si](C)(C)C` (configuration not stated), the TGI turned out to be 16.2 µM in the test on KM20L2 colon; 26.2 µM in the test on SNB-78 CNS; 17.1 µM in the test with DLD-1 colon; 26.7 µM in the test on HOP-18 NSCLC; 21.7 µM with DMS 273 small cell lung; 24.8 µM in the test on M19-MEL melanoma. In the test with XF 498 CNS, this molecule had a TGI of 12.1 µM.
`c1ccc(CN2CCC3(CC2)SSC2(CCN(Cc4ccccc4)CC2)SS3)cc1` yielded a concentration for total growth inhibition (TGI) in the test on MDA-N above 100 µM.
In the case of `Cn1c2ccccc2c(=O)c2c(O)cc3c(c21)CC(C1(C)CO1)O3` (configuration not stated), the TGI with KM20L2 colon was 31.8 µM; in the test with MDA-N it was 2.73 µM; in the test on DLD-1 colon it was 26.1 µM; with HOP-18 NSCLC it was above 93.2 µM; with DMS 273 small cell lung it was 49.2 µM; in the test with XF 498 CNS, 4.73 µM.
`COc1cc2oc(-c3ccc(O)cc3O)c(CC=C(C)C)c(=O)c2c(O)c1/C=C/C(C)C` gave a TGI in the test on MDA-N of 8.34 µM.
`COc1ccc2c(c1)C1OCCNC1CC2` (configuration not stated) returned a TGI in the test with MDA-N above 100 µM.
`NC1=NN(c2ccccc2)C(=O)C1/C(=N\NC(=O)c1cc2ccccc2cc1O)C(=O)Nc1cccc(C(F)(F)F)c1` (configuration not stated): the TGI in the test with KM20L2 colon, in the test on SNB-78 CNS, in the test with DLD-1 colon, in the test on HOP-18 NSCLC, with M19-MEL melanoma and with XF 498 CNS was above 100 µM throughout.
As for `COC(=O)C[CH2][Ge]([CH3])([CH3])[S]c1ccccc1`, the GI50 with KM20L2 colon is 38.4 µM; in the test on SNB-78 CNS it was 59.5 µM; in the test on DLD-1 colon it was 20.3 µM; in the test with HOP-18 NSCLC it was above 100 µM; in the test with DMS 273 small cell lung, 42.6 µM; in the test with M19-MEL melanoma, 36.8 µM. Besides, the TGI is above 100 µM in the test with KM20L2 colon; above 100 µM in the test on SNB-78 CNS; 42.9 µM in the test on DLD-1 colon; above 100 µM in the test on HOP-18 NSCLC; above 100 µM in the test on DMS 273 small cell lung; above 100 µM in the test on M19-MEL melanoma.
On to `C=C(C)C1CC=C(C)CC1` (configuration not stated), for which the GI50 with KM20L2 colon, in the test with SNB-78 CNS, in the test with DLD-1 colon, in the test on DMS 273 small cell lung, in the test with M19-MEL melanoma and in the test on XF 498 CNS was above 100 µM throughout. Besides, the total growth inhibition concentration (TGI) in the test with KM20L2 colon was > 100 µM and 1750 µM; with SNB-78 CNS, > 100 µM and 1960 µM; in the test on DLD-1 colon, > 100 µM and 1610 µM; in the test with HOP-18 NSCLC, above 100 µM; in the test with DMS 273 small cell lung, > 100 µM and 1720 µM; in the test on M19-MEL melanoma, > 100 µM and 1580 µM. Moreover, the TGI in the test with XF 498 CNS was > 100 µM and 1720 µM.
As to `COC(=O)C1=Cc2cc(OC)c(OC)cc2[C@H](c2ccc(OC)c(OC)c2)C1C(=O)OC` (some centres not stated), the TGI in the test on KM20L2 colon, in the test on SNB-78 CNS, in the test on DMS 273 small cell lung, in the test on M19-MEL melanoma and with XF 498 CNS was above 100 µM each time.
Turning to `O=C(CC1(O)C(=O)Nc2ccccc21)c1ccc(F)cc1` (configuration not stated), the TGI in the test with KM20L2 colon, with SNB-78 CNS, in the test with DLD-1 colon, in the test with DMS 273 small cell lung, in the test with M19-MEL melanoma and in the test on XF 498 CNS was above 100 µM throughout.
